According to the supplement of paper PMC10307832:

compound: CC(C)N(CCCNC(=O)Nc1ccc(C(C)(C)C)cc1)C[C@H]1O[C@@H](n2ccc3c(N)ncnc32)[C@H](O)[C@@H]1O + CC(=O)Nc1cccc(-n2c(=O)n(C3CC3)c(=O)c3c(Nc4ccc(I)cc4F)n(C)c(=O)c(C)c32)c1 [Trametinib] (partner 0.02 µM); assay: relative viability (nuclei count vs DMSO), 5 days (fraction); higher = more cells survive; settings: first compound 8 µM
Method in brief: (§1)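 Nuclei were stained with Hoechst during a one-step fixation (final 0.05% Triton X-100, 1% formaldehyde, 1 ug/ml Hoechst) carried out 5 days after dosing, then counted on 4× images. The cells, lung cancer lines in 1536-well plates, had been dosed by pin tool the day after seeding with one drug alone or a fixed anchor-drug dose plus five library-drug doses (not always all listed) in √10 steps. Relative viability is the nuclei count in treated wells divided by that in vehicle wells, and each value is the median of duplicate plates.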

Compared with SK-MES-1, H3255 is lower in relative viability: 0.537 for the first, 0.49 for the second.

First: COR-L23
Second: COR-L 105
The relative viability of the first is lower: 0.519 for the first, 0.537 for the second.

Compared with LOU-NH91, ChaGo-K-1 is higher in relative viability: 0.763 for the first, 0.843 for the second.

Compared with NCI-H2170, NCI-H3122 is lower in relative viability: 0.914 for the first, 0.247 for the second.

First: HOP-62
Second: HCC-44
The relative viability of the first is lower: 0.38 for the first, 1.18 for the second.

Going from NCI-H522 to LU99A, the relative viability falls from 0.845 to 0.508.

Compared with BEN, SW 900 is lower in relative viability: 1.08 for the first, 0.717 for the second.

Cell Line HCC-78 has a relative viability of 0.736.

compound: CC(C)=CC[C@@H](O)C1=CC(=O)c2c(O)ccc(O)c2C1=O [Shikonin] + Cc1nc(NC(=O)N2CCC[C@H]2C(N)=O)sc1-c1ccnc(C(C)(C)C(F)(F)F)c1 [Alpelisib] (partner 2 µM); assay: as above; settings: first compound 0.01 µM
Method in brief: as §1

First: PC-14
Second: EBC-1
The relative viability of the first is higher: 0.933 for the first, 0.829 for the second.

Compared with NCI-H1703, NCI-H2009 is higher in relative viability: 0.317 for the first, 1.31 for the second.

Compared with PC-3 [JPC-3], LCLC-103H is lower in relative viability: 1.04 for the first, 0.984 for the second.

Compared with NCI-H647, NCI-H2228 is lower in relative viability: 1.21 for the first, 0.66 for the second.

First: EMC-BAC-2
Second: NCI-H2087
The relative viability of the first is lower: 0.77 for the first, 1.15 for the second.

Compared with Calu-6, HCC-366 is lower in relative viability: 0.921 for the first, 0.329 for the second.

First: NCI-H1666
Second: NCI-H650
The relative viability of the first is lower: 0.915 for the first, 1.3 for the second.

Compared with LK-2, NCI-H2126 is lower in relative viability: 1.04 for the first, 0.764 for the second.

First: SK-MES-1
Second: H3255
The relative viability of the first is higher: 0.873 for the first, 0.637 for the second.

First: COR-L23
Second: COR-L 105
The relative viability of the first is lower: 0.845 for the first, 1.09 for the second.

Going from IA-LM to LOU-NH91, the relative viability falls from 0.862 to 0.703.

Compared with NCI-H2170, NCI-H3122 is lower in relative viability: 0.824 for the first, 0.752 for the second.

First: HOP-62
Second: HCC-44
The relative viability of the first is higher: 1.11 for the first, 0.972 for the second.

Compared with A549, LU99A is lower in relative viability: 0.789 for the first, 0.592 for the second.

Going from BEN to HCC-78, the relative viability falls from 1.09 to 0.311.

First: NCI-H1299
Second: NCI-H1563
The relative viability of the first is higher: 1.11 for the first, 0.906 for the second.

In the case of ABC-1, the relative viability is reported as 1.17.

same assay, conditions: first compound 0.1 µM

First: PC-14
Second: EBC-1
The relative viability of the first is higher: 1.01 for the first, 0.809 for the second.

First: NCI-H1703
Second: NCI-H2009
The relative viability of the first is lower: 0.277 for the first, 1.24 for the second.

First: NCI-H1993
Second: NCI-H520
The relative viability of the first is lower: 0.662 for the first, 1.25 for the second.

First: PC-3 [JPC-3]
Second: LCLC-103H
The relative viability of the first is higher: 1.11 for the first, 0.994 for the second.

Compared with NCI-H647, NCI-H2228 is lower in relative viability: 1.23 for the first, 0.781 for the second.

Going from EMC-BAC-2 to NCI-H2087, the relative viability rises from 0.803 to 0.967.

Going from Calu-6 to HCC-366, the relative viability falls from 1.23 to 0.347.

Going from NCI-H1666 to LK-2, the relative viability rises from 0.964 to 1.54.

Going from NCI-H2126 to SK-MES-1, the relative viability rises from 0.843 to 1.04.

Compared with H3255, COR-L23 is higher in relative viability: 0.721 for the first, 0.913 for the second.

First: COR-L 105
Second: IA-LM
The relative viability of the first is higher: 1.18 for the first, 0.667 for the second.

First: LOU-NH91
Second: NCI-H2170
The relative viability of the first is higher: 0.73 for the first, 0.672 for the second.

Compared with NCI-H3122, HOP-62 is higher in relative viability: 0.823 for the first, 1.37 for the second.

Going from HCC-44 to A549, the relative viability falls from 0.849 to 0.81.

First: LU99A
Second: BEN
The relative viability of the first is lower: 0.671 for the first, 1.1 for the second.

First: HCC-78
Second: NCI-H1299
The relative viability of the first is lower: 0.347 for the first, 1.06 for the second.

First: NCI-H1563
Second: ABC-1
The relative viability of the first is lower: 0.999 for the first, 1.3 for the second.

same assay, conditions: first compound 0.3162 µM

First: PC-14
Second: EBC-1
The relative viability of the first is higher: 1.07 for the first, 0.85 for the second.

Compared with NCI-H1703, NCI-H2009 is higher in relative viability: 0.287 for the first, 1.22 for the second.

Going from NCI-H1993 to NCI-H520, the relative viability rises from 0.661 to 0.902.

First: PC-3 [JPC-3]
Second: LCLC-103H
The relative viability of the first is higher: 1.05 for the first, 0.896 for the second.

First: NCI-H647
Second: NCI-H2228
The relative viability of the first is higher: 0.926 for the first, 0.73 for the second.

Going from EMC-BAC-2 to NCI-H2087, the relative viability rises from 0.78 to 1.12.

Compared with Calu-6, HCC-366 is lower in relative viability: 0.88 for the first, 0.423 for the second.

First: NCI-H1666
Second: NCI-H650
The relative viability of the first is lower: 1.07 for the first, 1.13 for the second.

Going from LK-2 to NCI-H2126, the relative viability falls from 1.11 to 0.786.

Going from SK-MES-1 to H3255, the relative viability falls from 0.909 to 0.629.

Compared with COR-L23, COR-L 105 is higher in relative viability: 0.86 for the first, 1.07 for the second.

First: IA-LM
Second: LOU-NH91
The relative viability of the first is lower: 0.637 for the first, 0.839 for the second.

First: NCI-H2170
Second: NCI-H3122
The relative viability of the first is higher: 0.92 for the first, 0.844 for the second.

First: HOP-62
Second: HCC-44
The relative viability of the first is higher: 1.2 for the first, 0.933 for the second.

Compared with A549, LU99A is lower in relative viability: 0.708 for the first, 0.576 for the second.

Going from BEN to HCC-78, the relative viability falls from 1.12 to 0.352.

Compared with NCI-H1299, NCI-H1563 is lower in relative viability: 1.04 for the first, 0.875 for the second.

In the case of ABC-1, the relative viability is reported as 0.901.

same assay, conditions: first compound 1 µM

Going from PC-14 to EBC-1, the relative viability falls from 1.07 to 0.843.

First: NCI-H1703
Second: NCI-H2009
The relative viability of the first is lower: 0.244 for the first, 0.802 for the second.

Compared with NCI-H1993, NCI-H520 is higher in relative viability: 0.699 for the first, 0.961 for the second.

Going from PC-3 [JPC-3] to LCLC-103H, the relative viability falls from 1.08 to 0.978.

Compared with NCI-H647, NCI-H2228 is lower in relative viability: 1.14 for the first, 0.556 for the second.

Compared with EMC-BAC-2, NCI-H2087 is higher in relative viability: 0.747 for the first, 1.04 for the second.

First: Calu-6
Second: HCC-366
The relative viability of the first is higher: 0.934 for the first, 0.379 for the second.

First: NCI-H1666
Second: NCI-H650
The relative viability of the first is lower: 0.856 for the first, 1.08 for the second.

Compared with LK-2, NCI-H2126 is lower in relative viability: 1.04 for the first, 0.763 for the second.

Going from SK-MES-1 to H3255, the relative viability rises from 0.594 to 0.689.

First: COR-L23
Second: COR-L 105
The relative viability of the first is lower: 0.719 for the first, 0.728 for the second.

Going from IA-LM to LOU-NH91, the relative viability rises from 0.69 to 0.727.

Compared with NCI-H2170, NCI-H3122 is lower in relative viability: 0.793 for the first, 0.79 for the second.

Going from HOP-62 to HCC-44, the relative viability rises from 0.707 to 0.852.

Going from A549 to LU99A, the relative viability falls from 0.753 to 0.441.

Compared with BEN, HCC-78 is lower in relative viability: 1.24 for the first, 0.349 for the second.

First: NCI-H1299
Second: NCI-H1563
The relative viability of the first is higher: 1.07 for the first, 0.779 for the second.

For ABC-1, the relative viability was 0.514.

compound: CC(C)N(CCCNC(=O)Nc1ccc(C(C)(C)C)cc1)C[C@H]1O[C@@H](n2ccc3c(N)ncnc32)[C@H](O)[C@@H]1O + CCNC(=O)c1noc(-c2cc(C(C)C)c(O)cc2O)c1-c1ccc(CN2CCOCC2)cc1 [Luminespib] (partner 0.01 µM); assay: as above; settings: first compound 0.08 µM
Method in brief: as §1

Compared with NCI-H2342, NCI-H1623 is lower in relative viability: 0.856 for the first, 0.495 for the second.

PC-14 was tested, and the relative viability was 0.109.
